In ChEMBL document CHEMBL1123480, “Pyrazole derivatives. 5. Synthesis and antineoplastic activity of 3-(2-chloroethyl)-3,4-dihydro-4-oxopyrazolo[5,1-d]-1,2,3, 5-tetrazine-8-carboxamide and related compounds” (J Med Chem, 1986):
The source made the active and inactive calls.

Assays:
Mus musculus = organism: Mus musculus; assay: Antineoplastic activity against mammary adenocarcinoma M16c cell; IA=Inactive; type: functional
P388 = assay: Antineoplastic activity against NCI P388 cell; IA=Inactive; type: functional, cell-based; details: Mus musculus
L1210 = assay: Antineoplastic activity against L1210 cell line; IA=Inactive; type: functional, cell-based; details: Mus musculus

Measured: Activity

Cn1nnc2c(C(N)=O)cnn2c1=O
inactive: all assays above
